Here are results for 7 compounds from patent US8779202B2, “Compositions and methods for the treatment of giardiasis” (Georgetown University, priority 2009, dated 2014).

For one experiment, the system named is Giardia parasites. The experiment can be described thus: Video microscopy of parasite morphology and dynamics. The experiment is classed as cell-based, Giardia lamblia. Conditions: for Observed Parasite Morphology and Dynamics: Table I, video microscopy at 50, 15, 10, 5 and 1 μM. On the procedure:
A series of video microscopy studies were undertaken to examine the effect of the compounds on parasite morphology and dynamics. Short 1 minute videos of parasite behavior were recorded using DIC optics on a Zeiss AXIOPLAN microscope (Carl Zeiss Microimaging GmbH, Germany) using a Photometrics CCD camera (Photometrics, Inc.; Tucson, Ariz.). Recordings were made on at least three separate occasions at compound concentrations of 50 μM, 15 μM, 10 μM, 5 μM, and 1 μM to allow comparison to the dose-response curves in the attachment assay. Four broad categories of compound action were found (see Table I).

Experiment [1] concerns Giardia parasite cultures. The experiment can be described thus: Reversibility of compound effect on Giardia viability and attachment. Format: cell-based, Giardia lamblia. Conditions: 15 μM, 30 minutes-2 hours in PBS at 37° C., wash, 48 hours in growth media. On the procedure:
Parasite cultures were treated for 30 minutes—2 hours with 15 μM of Compounds I-16, III-1, IV-1, V-1, VI-1, VII-1, and VIII-2A in PBS at 37° C. Parasites were then washed with warm PBS to remove compounds, and were placed in normal Giardia growth media for an additional 48 hours. […] All comparisons were made to cultures of untreated Giardia.

As for `Oc1ccc2ccccc2c1CN(Cc1c(O)ccc2ccccc12)C1CCCCC1` [Compound I-16], in the experiment with Giardia parasites, the “effect on parasite morphology and activity” value is “no observable effect on parasite morphology and activity, but did significantly reduce attachment”; the “Observed Parasite Morphology and Dynamics” value is “Parasites appear normal in morphology and activity,”. In addition, in experiment [1], the “reversibility of effect on parasite attachment and viability” value (“reversibility of effect” below) was “largely reversible”.

`CC(Br)C(=O)c1ccc2cc(Br)c3ccccc3c2c1` (centres unmarked) [Compound III-1]: in the experiment with Giardia parasites, the “effect on parasite morphology and activity” value is recorded as “profoundly disrupted parasite morphology or simply destroyed the parasites”; the “Observed Parasite Morphology and Dynamics” value is reported as “Parasites display a profoundly disrupted morphology”. Besides, the “reversibility of effect” value in experiment [1] is given as “irreversible”.

With `O=C1C=C(N2CCN(c3ccccn3)CC2)C(=O)c2c(O)ccc(O)c21` [Compound IV-1], in the experiment on Giardia parasites, the “effect on parasite morphology and activity” value is “profoundly disrupted parasite morphology or simply destroyed the parasites”; the “Observed Parasite Morphology and Dynamics” value is on record as “Parasites display a profoundly disrupted morphology”. Besides, the “reversibility of effect” value in experiment [1] is “irreversible”.

Regarding `Nc1nc(SCc2ccccc2[N+](=O)[O-])c2[nH]cnc2n1` [Compound V-1], in the experiment with Giardia parasites, the “effect on parasite morphology and activity” value is “disrupted peripheral morphology, resulting either in loss of overall shape or localized membrane blebbing”. Further, in experiment [1], the “reversibility of effect” value is recorded as “largely reversible”.

In the case of `Cc1c(Cl)cc(C(C)(C)C)c(O)c1Cc1c(C)c(Cl)cc(C(C)(C)C)c1O` [Compound VI-1], in the experiment on Giardia parasites, the “effect on parasite morphology and activity” value is “disrupted peripheral morphology, resulting either in loss of overall shape or localized membrane blebbing”; the “Observed Parasite Morphology and Dynamics” value was “Parasites display disrupted peripheral morphology,”. In experiment [1], the “reversibility of effect” value is listed as “largely reversible”.

`C[C@H]1CC[C@@H]2[C@@H](C)[C@H]3[C@H](C[C@H]4[C@@H]5CC=C6C[C@@H](O)CC[C@]6(C)[C@H]5CC[C@]34C)N2C1` [Compound VIII-2A]: in the experiment on Giardia parasites, the “effect on parasite morphology and activity” value is “no observable effect on parasite morphology and activity, but did significantly reduce attachment”; the “Observed Parasite Morphology and Dynamics” value was “Parasites appear normal in morphology and activity,”. Moreover, the “reversibility of effect” value in experiment [1] was “largely reversible”.

With Nogalamycin [Compound VII-1], in the experiment on Giardia parasites, the “effect on parasite morphology and activity” value is “no observable effect on Giardia morphology, but did cause flagellar paralysis”; the “Observed Parasite Morphology and Dynamics” value was “Parasites display disrupted peripheral morphology,”. Moreover, the “reversibility of effect” value in experiment [1] was “largely reversible”.
